{"source": "paper PMC7052193", "about": "“Nanobody-enabled monitoring of kappa opioid receptor states” (Nature Communications, 2020)", "key": {"MOR": {"target": "T1, MOR (Homo sapiens, UniProt P35372)", "T1 construct": "expressed in transfected cells; host or cells: HEK 293T (by the general BRET protocol; not repeated for MOR)", "assay": "BRET assay MOR and Nb6", "format": "cell-based", "conditions": "Log [Drug]"}, "KOR": {"target": "KOR (Homo sapiens, UniProt P41145)", "assay": "Competition binding with 3H-JDTic in the absence or presence of 5 µM Nb6 or Nb39"}, "ETA [1]": {"system": "ETA", "format": "cell-based, human", "conditions": "ETA-KOR, Log [Drug]"}, "ETA [2]": {"system": "ETA", "format": "cell-based, human", "conditions": "ETA-KOR"}}, "note": "“And” between values parts separate entries of the source, which are not always exact repeats. Identical values can stand only once. Like-named read-outs stand apart in the source and are kept apart here.", "data": [{"smiles": "C[C@@H](NC(=O)[C@@H](N)Cc1ccc(O)cc1)C(=O)NCC(=O)N(C)[C@@H](Cc1ccccc1)C(=O)NCCO", "note": "[DAMGO]", "values": [{"measurement": "response (Figure S9b)", "setting": "MOR; M -6", "result": "34.0976 and 31.8296 and 33.2096"}, {"measurement": "response (Figure S9b)", "setting": "MOR; M -7", "result": "78.9066 and 72.2446 and 76.3636"}, {"measurement": "response (Figure S9b)", "setting": "MOR; M -8", "result": "84.8057 and 83.6246 and 84.5411"}, {"measurement": "response (Figure S9b)", "setting": "MOR; M -9", "result": "92.3096 and 93.4924"}, {"measurement": "response (Figure S9b)", "setting": "MOR; M -10", "result": "90.9034 and 89.2915 and 90.6654"}, {"measurement": "response (Figure S9b)", "setting": "MOR; M -11", "result": "93.7193 and 94.9714 and 95.2973"}, {"measurement": "response (Figure S9b)", "setting": "MOR; M -12", "result": "99.6463 and 100.354"}]}, {"smiles": "CC[C@H](C)[C@H](NC(=O)[C@H](CCCNC(=N)N)NC(=O)[C@H](CCCNC(=N)N)NC(=O)[C@H](CC(C)C)NC(=O)[C@H](Cc1ccccc1)NC(=O)CNC(=O)CNC(=O)[C@@H](N)Cc1ccc(O)cc1)C(=O)N[C@@H](CCCNC(=N)N)C(=O)N1CCC[C@H]1C(=O)N[C@@H](CCCCN)C(=O)N[C@@H](CC(C)C)C(=O)N[C@@H](CCCCN)C(=O)O", "note": "[Dynorphin A, 1-13, Dynorphin A (1–13)]", "values": [{"measurement": "Ki", "setting": "KOR", "result": "2.43 ± 0.2", "unit": "nM"}]}, {"smiles": "CC[C@H](C)[C@H](NC(=O)[C@H](CC(=O)O)NC(=O)[C@H](CC(C)C)NC(=O)[C@H](Cc1c[nH]cn1)NC(=O)[C@@H]1CSSC[C@H](N)C(=O)N[C@@H](CO)C(=O)N[C@H]2CSSC[C@H](NC(=O)[C@H](CCC(=O)O)NC(=O)[C@H](CCCCN)NC(=O)[C@H](CC(=O)O)NC(=O)[C@H](CCSC)NC(=O)[C@H](CC(C)C)NC(=O)[C@H](CO)NC(=O)[C@H](CO)NC2=O)C(=O)N[C@@H](C(C)C)C(=O)N[C@@H](Cc2ccc(O)cc2)C(=O)N[C@@H](Cc2ccccc2)C(=O)N1)C(=O)N[C@H](C(=O)N[C@@H](Cc1c[nH]c2ccccc12)C(=O)O)[C@@H](C)CC", "note": "[Endothelin-1]", "values": [{"measurement": "Net BRET G protein activation, source data Figure 5c", "setting": "ETA [1]; M = -5.5", "result": "8.126 and 14.2188 and 11.7402"}, {"measurement": "Net BRET G protein activation, source data Figure 5c", "setting": "ETA [1]; M = -6.5", "result": "13.3731 and 8.584 and 11.2246"}, {"measurement": "Net BRET G protein activation, source data Figure 5c", "setting": "ETA [1]; M = -7.5", "result": "27.9656 and 34.3494 and 31.9455"}, {"measurement": "Net BRET G protein activation, source data Figure 5c", "setting": "ETA [1]; M = -8.5", "result": "53.981 and 48.3799 and 51.5065"}, {"measurement": "Net BRET G protein activation, source data Figure 5c", "setting": "ETA [1]; M = -9.5", "result": "73.7875 and 86.5149 and 80.3002"}, {"measurement": "Net BRET G protein activation, source data Figure 5c", "setting": "ETA [1]; M = -10.5", "result": "94.2005 and 91.2115 and 93.274"}, {"measurement": "Net BRET G protein activation, source data Figure 5c", "setting": "ETA [1]; M = -11.5", "result": "104.258 and 97.1609 and 101.662"}, {"measurement": "Net BRET G protein activation, source data Figure 5c", "setting": "ETA [1]; M = -12.5", "result": "100.567 and 115.131"}, {"measurement": "Net BRET receptor and Nb6, source data Figure 5b", "setting": "ETA [2]; Log [Endothelin-1,] M = -5", "result": "4.499 and 7.7967 and 6.394"}, {"measurement": "Net BRET receptor and Nb6, source data Figure 5b", "setting": "ETA [2]; Log [Endothelin-1,] M = -6", "result": "5.268 and 6.925 and 6.885"}, {"measurement": "Net BRET receptor and Nb6, source data Figure 5b", "setting": "ETA [2]; Log [Endothelin-1,] M = -7", "result": "45.5139 and 37.9048 and 42.0353"}, {"measurement": "Net BRET receptor and Nb6, source data Figure 5b", "setting": "ETA [2]; Log [Endothelin-1,] M = -8", "result": "94.8754 and 92.9034 and 94.0384"}, {"measurement": "Net BRET receptor and Nb6, source data Figure 5b", "setting": "ETA [2]; Log [Endothelin-1,] M = -9", "result": "99.5856 and 100.414 and 100.568"}, {"measurement": "Net BRET receptor and Nb6, source data Figure 5b", "setting": "ETA [2]; Log [Endothelin-1,] M = -10", "result": "98.7901 and 95.8099 and 98.252"}, {"measurement": "Net BRET receptor and Nb6, source data Figure 5b", "setting": "ETA [2]; Log [Endothelin-1,] M = -11", "result": "101.512 and 91.9128 and 97.2504"}]}, {"smiles": "NC(=O)c1ccc(Oc2ccc(CN3CCC[C@H]3c3cccnc3)cc2)c(F)c1", "note": "[LY2459989]", "values": [{"measurement": "increase of binding affinity in the presence of Nb6", "setting": "KOR", "result": "~ 6 fold"}, {"measurement": "Ki", "setting": "KOR; read-out: Ki ± SEM", "result": "3.4 ± 0.25", "unit": "nM"}]}]}
